1 compound from patent US20130225675A1, “BACTERIAL CONTROL OF WATER BASED FLUIDS DURING […] AND […] TIME IN THE SU[…]” (SCHLUMBERGER TECHNOLOGY CORPORATION, priority 2010, published 2013) can be followed below.

This test deals with Sulfate-Reducing Bacteria. The test can be described thus: Qualitative test kit specific to sulfate-reducing bacteria, produced water samples. The following applies: produced water from the Piceance basin, 250 ppm glutaraldehyde, "Glut+butenolide" with a further 125 ppm butenolide. The class given is cell-based. As for the experimental part:
Produced water samples from the Piceancebasin were tested for bacterial content in a simple qualitative test kit manufactured by “Droycon Boiconcepts Inc., specific to Sulfate-Reducing Bacteria. Three kits were used, labeled “No treatment”, “Glutaraldehyde”, and “Glut+butenolide”. The latter two bottles were treated with 250 ppm glutaraldehyde.
FIG. 1 is a photograph series that compares the experimental results of testing the effectiveness of biocide compositions.

On to `O=CCCCC=O` [Glutaraldehyde, glutaraldehyde], for which the “appearance of the test bottle (black residues characteristic of the presence of SRBs)” value (after 14 days) is “clear and pale yellow”. Further, the “appearance of the test bottle (re-growth of SRBs, fine black residues)” value (after 17 days) is “begun to show re-growth of SRBs”.
